Paper PMC8780434 (Viruses, 2022)
“And” between values parts separate entries of the source, which are not always exact repeats. Equal values may be shown once. Read-outs that look alike come from different tables or passages of the source.

Assays:
[1] = tested on: EV71; test: Western blot of viral VP1 in EV71-infected RD cells; conditions: for VP1/Tubulin (%): EV71 MOI 1, 6 h, DMSO = 100; for antiviral activity against EV71 infections, rank among SSRIs: 5 or 10 μM, Western blot
[2] = tested on: EV71; test: Immunofluorescence assay (IFA) of anti-EV71 potency; format: cell-based, EV71 (strain BrCr); conditions: Enterovirus A, EV71 MOI 0.1, 12 h p.i.
[3] = Cell viability assay (CellTiter 96 AQueous) in HeLa cells; conditions: human
[4] = Cell viability assay (CellTiter 96 AQueous) in RD cells; conditions: human
[5] = Secondary screening cell cytotoxicity; conditions: at 10 μM, secondary screening criterion
[6] = in vitro; conditions: human
[7] = in vitro; conditions: human; remark: listed apart in the source
[8] = human, 12 h, 10 μM
[9] = tested on: EV71; conditions: active in the range of several mM; cited from earlier work
[10] = parameters: method as in earlier work; conditions: cited from earlier work
[11] = tested on: EV71; test: Virus binding assay (RT-qPCR); conditions: RD cells, 5 or 10 μM, 0 °C 1 h, MOI 5
[12] = tested on: EV71; test: Low-pH exposure assay (Western blot and plaque assay); format: cell-based, EV71 (strain BrCr); conditions: 10 μM; for times more viral titer than the sertraline-treated pH 7.4 control: 12 h
[13] = tested on: EV71; test: Virus internalization assay (RT-qPCR); conditions: RD cells, 5 or 10 μM, 37 °C 1 h after binding, trypsinized, MOI 5
[14] = tested on: EV71; test: Time-of-addition assay (RT-qPCR of viral RNA); format: cell-based, EV71 (strain BrCr); conditions: RD cells, 10 μM, MOI 0.1, RT-qPCR
[15] = tested on: EV71; test: FRET-based biosensor drug screening (HeLa-G2AwtR cells) for EV71 inhibitors; format: cell-based, EV71 (strain BrCr); conditions: Enterovirus A, read-out: inhibition rate
[16] = 5 μM drug, HeLa-G2AwtR cells, EV71 MOI 1, 12 h

For `CN(C)CCCN1c2ccccc2Sc2ccc(Cl)cc21` [CPZ, chlorpromazine], the “VP1/Tubulin (%)” value ([1]; 5 μM) was 109% and the “VP1/Tubulin (%)” value ([1]; 10 μM) was 54%.
With `CCN(CC)CCCC(C)Nc1ccnc2cc(Cl)ccc12` (stereo not shown) [CQ, chloroquine] the “VP1/Tubulin (%)” value ([1]; 5 μM) was 52% and the “VP1/Tubulin (%)” value ([1]; 10 μM) was 15%.
For `COCCCC/C(=N\OCCN)c1ccc(C(F)(F)F)cc1` [FLX, fluvoxamine], the “VP1/Tubulin (%)” value ([1]; 5 μM) was 82%, the “VP1/Tubulin (%)” value ([1]; 10 μM) was 77% and the “antiviral activity against EV71 infections, rank among SSRIs” value [1] was “weakest antiviral activity”.
For `CCCCCCCCc1ccc(CCC(N)(CO)CO)cc1` [Fingolimod], the IC50 ([2]; HeLa cells) was 2.94 µM, the IC50 ([2]; RD cells) was 3.59 µM and the CC50 at 12 h [3] was 21.8 µM. For the same compound, the CC50 at 12 h [4] was 24.5 µM and the cell cytotoxicity [5] was < 20%.
In the case of `Oc1c(Cl)cc(Cl)c(Cl)c1Cc1c(O)c(Cl)cc(Cl)c1Cl` [Hexachorophene, Hexachlorophene], the cell cytotoxicity [5] is reported as < 20%.
For `OC(c1cc(C(F)(F)F)nc2c(C(F)(F)F)cccc12)C1CCCCN1` (stereo not shown) [Mefloquine], the IC50 ([2]; HeLa cells) was 3.25 µM, the IC50 ([2]; RD cells) was 3.89 µM and the CC50 at 12 h [6] was 30 µM. The CC50 at 12 h [7] was 29.8 µM and the cell cytotoxicity [8] was < 20%.
In the case of `Cl.N` [NH4Cl], the “antiviral effect compared with sertraline and chloroquine” value [9] is given as “much weaker antiviral effect”.
With `OC(CNCC(O)C1CCc2cc(F)ccc2O1)C1CCc2cc(F)ccc2O1` (stereo not shown) [Nebivolol] the IC50 ([2]; HeLa cells) was 4.17 µM, the IC50 ([2]; RD cells) was 4.74 µM and the CC50 at 12 h [6] was 32.9 µM. The CC50 at 12 h [7] was 32.7 µM and the cell cytotoxicity [8] was < 20%.
For `Fc1ccc([C@@H]2CCNC[C@H]2COc2ccc3c(c2)OCO3)cc1` [PAR, paroxetine], the “VP1/Tubulin (%)” value ([1]; 5 μM) was 74% and the “VP1/Tubulin (%)” value ([1]; 10 μM) was 48%.
In the case of `CN[C@H]1CC[C@@H](c2ccc(Cl)c(Cl)c2)c2ccccc21` [Sertraline], the “VP1/Tubulin (%)” value ([1]; 5 μM) is reported as 58%, the “VP1/Tubulin (%)” value ([1]; 10 μM) is reported as 10% and the “antiviral activity against EV71 infections, rank among SSRIs” value [1] is reported as “strongest inhibitory effect”. The “maximum concentration in human plasma” value [10] was “approximately 200 ng/mL and ~ 654 nM”, the “viral RNA levels, virus binding, versus drug-free control” value [11] was “undetectable difference” and the “times more viral titer than the sertraline-treated pH 7.4 control” value ([12]; HeLa cells, pH 5 medium 10 min) was 13.4 times. For the same compound, the “times more viral titer than the sertraline-treated pH 7.4 control” value ([12]; HeLa cells, pH 5.5 medium 10 min) was 4 times, the “viral replication at the levels of viral protein after low-pH shocks” value ([12]; RD and HeLa cells, pH 5.5 and 5, 6 h p.i., Western blot) was “markedly rescued” and the “times more viral titer than the sertraline-treated pH 7.4 control” value ([12]; RD cells, pH 5 medium 10 min) was 16 times. The “times more viral titer than the sertraline-treated pH 7.4 control” value ([12]; RD cells, pH 5.5 medium 10 min) was 5.7 times, the cell cytotoxicity [8] was < 20% and the “viral RNA levels, virus internalization, versus drug-free control” value [13] was “undetectable difference”. For the same compound, the “viral RNA levels, post-entry step” value ([14]; drug present 2-12 h) was “negligible effect” and the “viral RNA levels, entry step” value ([14]; drug present -2 to 2 h) was “profound reduction”.
In the case of `COc1cccc2c1C(=O)c1c(O)c3c(c(O)c1C2=O)C[C@@](O)(C(C)=O)C[C@@H]3O[C@H]1C[C@H](N)[C@H](O)[C@H](C)O1` [daunorubicin], the inhibition at 5 µM ([15]; EV71, 12 h) is reported as > 50%.
For `COc1cccc2c1C(=O)c1c(O)c3c(c(O)c1C2=O)C[C@@](O)(C(=O)CO)C[C@@H]3O[C@H]1C[C@H](N)[C@H](O)[C@H](C)O1` [doxorubicin], the inhibition at 5 µM [15, 16] was > 50%.
For `COc1cccc2c1C(=O)c1c(O)c3c(c(O)c1C2=O)C[C@@](O)(C(=O)CO)C[C@@H]3O[C@H]1C[C@H](N)[C@@H](O)[C@H](C)O1` [epirubicin], the inhibition at 5 µM [15, 16] was > 50%.
With `Nc1ccn([C@@H]2O[C@H](CO)[C@@H](O)C2(F)F)c(=O)n1` [gemcitabine] the inhibition at 5 µM [15, 16] was > 50%.
In the case of `CC(=O)[C@]1(O)Cc2c(O)c3c(c(O)c2[C@@H](O[C@H]2C[C@H](N)[C@H](O)[C@H](C)O2)C1)C(=O)c1ccccc1C3=O` [idarubicin], the inhibition at 5 µM [15, 16] is reported as > 50%.
In the case of `O=C1c2c(O)ccc(O)c2C(=O)c2c(NCCNCCO)ccc(NCCNCCO)c21` [mitoxantrone], the inhibition at 5 µM [15, 16] is reported as > 50%.
